US7396844B1, “Benzamidine derivatives” (Ajinomoto Co., Inc., priority 1997, dated 2008)
Where a name gives a salt, the structure may show the parent alone. Read-outs that look alike come from different tables or passages of the source.

Legend:
[1] = target: T1, human thrombin (Homo sapiens, UniProt P00734); experiment: Determination of thrombin-inhibiting activity; format: biochemical
T1 construct: human thrombin (a product of SIGMA Co.); purchased SIGMA Co
Description: 130 μl of 100 mM Tris-HCl buffer adjusted to pH 8.4 was added to 10 μl of an aqueous solution of a test compound. Then 10 μl of a solution of human thrombin (a product of SIGMA Co.) adjusted to 2 units/ml with Tris-HCl buffer of pH 8.4 was added to the resultant mixture. […] The absorbance was determined and then the initial reaction rate was determined. A control was prepared in the same manner as that described above except that the solution of the compound to be tested was replaced with 10 μl of tris hydrochloride buffer adjusted to pH 8.4.

[2] = test system: blood plasma; experiment: Determination of blood anticoagulating activity by prothrombin time (PT); format: biochemical, human; set-up: key: -log of concentration doubling control PT
Description: The blood anticoagulating activity was determined by a prothrombin time (PT) determination method. The PT was determined as follows: The blood was taken from healthy people. […] The blood plasma was separated by the centrifugation. 5 μl of DMSO solution containing a test compound was added to 45 μl of the blood plasma. After the incubation at room temperature for 2 minutes, a test tube containing the blood plasma solution was placed in Sysmex CA-3000 fully automatic blood coagulation determination device (a product of Toa Medical Electronics Co., Ltd), and incubated at 37° C. for 3 minutes. […] PT was automatically determined with the device. A sample containing 5 μl of DMSO in place of the solution of the test compound was used as the control. The negative logarithm (PT2) of the concentration of the test compound which elongated PT of the control to the twice as long was determined, and employed as the index of the blood anticoagulating activity.

[3] = target: T2, activated human blood coagulation factor X (Homo sapiens, UniProt P00742); experiment: Determination of activity of inhibiting the activated blood coagulation factor X; format: biochemical; details: for IC50: read-out: Activity of inhibiting activated blood coagulation factor X (pIC50) (converted)
T2 construct: purchased Enzyme Research Co
Description: 130 μl of 100 mM Tris-HCl buffer adjusted to pH 8.4 was added to 10 μl of an aqueous solution of a compound to be tested. Then 10 μl of a 0.5 unit/ml solution of activated human blood coagulation factor X (a product of Enzyme Research Co.) in Tris-HCl buffer hydrochloride of pH 8.4 was added to the resultant mixture. After the incubation at room temperature for 10 minutes, 50 μl of a solution of N-benzoyl-L-isoleucyl-L-glutamyl-glycyl-L-arginyl-p-nitroanilide hydrochloride (a product of Peptide Institute, Inc.) adjusted to 0.8 mM with Tris-HCl buffer (pH 8.4) was added thereto. The absorbance was determined and then the initial reaction rate was determined. A control was prepared in the same manner as that described above except that the solution of the compound to be tested was replaced with 10 μl of Tris-HCl buffer adjusted to pH 8.4.

[4] = Table 3, same manner as Example 94, read-out: Thrombin inhibiting activity (pIC50) (converted)
[5] = Table 3, same manner as Example 184, negative logarithm of concentration doubling PT
[6] = Table 3, same manner as Example 93
[7] = Table 2, same manner as Example 94, read-out: Thrombin-inhibiting activity (pIC50) (converted)
[8] = Table 2, negative logarithm of concentration that elongated PT of the control to twice as long, plasma of healthy people
[9] = Table 2, same manner as Example 93
[10] = Table 1, negative logarithm of concentration inhibiting 50% of initial rate, Tris-HCl pH 8.4, room temperature
[11] = Table 1, negative logarithm of concentration inhibiting 50% of initial rate, substrate S-2238, Tris-HCl pH 8.4, read-out: Thrombin-inhibiting activity (pIC50) (converted)

T2 sequence (P00742 235-488 limits assumed): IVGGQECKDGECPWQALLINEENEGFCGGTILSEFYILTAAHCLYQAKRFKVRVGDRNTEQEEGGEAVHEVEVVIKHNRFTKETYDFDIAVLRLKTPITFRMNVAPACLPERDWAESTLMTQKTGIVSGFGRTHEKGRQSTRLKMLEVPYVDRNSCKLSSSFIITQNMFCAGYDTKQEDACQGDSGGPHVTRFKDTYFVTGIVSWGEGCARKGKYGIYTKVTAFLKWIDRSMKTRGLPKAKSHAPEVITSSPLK
T2 sequence (P00742 41-179 partner limits assumed): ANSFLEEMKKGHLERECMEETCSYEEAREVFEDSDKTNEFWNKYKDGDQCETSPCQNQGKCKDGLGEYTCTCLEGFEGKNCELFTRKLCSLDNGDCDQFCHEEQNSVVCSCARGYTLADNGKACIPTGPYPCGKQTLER

Structure (SMILES) | IC50 [1, 7] | Blood anticoagulating activity (PT2) [2, 8] | IC50 [3, 9] | further results
N=C(N)c1ccc(CC(=O)C(=O)O)c(OC[C@@H](CC(=O)O)NC(=O)c2ccc(C(=O)N3CCCC3)cc2)c1.O=C(O)C(F)(F)F [Compound of Ex. 191, (3R)-4-[5-amidino-2-(2-carboxy-2-oxoethyl)phenoxy]-3-[4-(pyrrolidine-1-carbonyl)benzoylamino]butanoic acid trifluoroacetate] |  |  |  | IC50 [1, 4]: 200 µM; Blood anticoagulating activity (PT2) [2, 5]: 6.0; IC50 [3, 6]: 0.00398 µM
CC(=N)N1CCC(Oc2ccc(C[C@@H](COc3cccc(C(=N)N)c3)NS(=O)(=O)c3ccc(C(=O)O)cc3)cc2)CC1.O=C(O)C(F)(F)F.O=C(O)C(F)(F)F [Compound of Ex. 168, 4-[(2S)-1-[4-(1-acetimidoyl-4-piperidyloxy)phenyl]-3-(3-amidinophenoxy)-2-propylsulfamoyl]benzoic acid bistrifluoroacetate] | 79.4 µM | 6.2 | 0.0316 µM | 
N=C(N)c1ccc(C(=O)NCCSc2cccc(C(=N)N)c2)cc1.O=C(O)C(F)(F)F.O=C(O)C(F)(F)F [Compound of Ex. 143, N-[2-(3-amidinophenylthio)ethyl]-4-amidinobenzamide bistrifluoroacetate] |  | 5.3 | 0.501 µM | 
N=C(N)c1ccc(C(=O)NCCOc2cccc(C(=N)N)c2)cc1.O=C(O)C(F)(F)F.O=C(O)C(F)(F)F [Compound of Ex. 95, N-[2-(3-amidinophenoxy)ethyl]-4-amidinobenzamide bistrifluoroacetate] |  | 5.9 | 0.316 µM | 
N=C(N)c1ccc(CC(=O)C(=O)O)c(OC[C@H](Cc2ccc(OC3CCNCC3)cc2)NS(=O)(=O)c2ccccc2)c1.O=C(O)C(F)(F)F.O=C(O)C(F)(F)F [Compound of Ex. 180, 3-[4-amidino-2-[(2S)-2-(benzenesulfonylamino)-3-[4-(4-piperidyloxy)phenyl]propoxy]phenyl]-2-oxopropionic acid bistrifluoroacetate] | 3.16 µM | 5.7 | 0.158 µM | 
CC(=N)N1CCC(Oc2ccc(C[C@@H](COc3cc(C(=N)N)ccc3CC(=O)C(=O)O)NS(=O)(=O)c3ccccc3)cc2)CC1.O=C(O)C(F)(F)F.O=C(O)C(F)(F)F [Compound of Ex. 181, 3-[4-amidino-2-[(2S)-3-[4-(1-acetimidoyl-4-piperidyloxy)phenyl]-2-(benzenesulfonylamino)propoxy]phenyl]-2-oxopropionic acid bistrifluoroacetate] | 1.58 µM | 6.7 | 0.02 µM | 
CC(=N)N1CCC(Cc2ccc(C[C@@H](COc3cccc(C(=N)N)c3)NS(=O)(=O)c3ccccc3)cc2)CC1.O=C(O)C(F)(F)F.O=C(O)C(F)(F)F [Compound of Ex. 165, 3-[(2S)-2-(benzenesulfonylamino)-3-[4-[(1-acetimidoyl-4-piperidyl)methyl]phenyl]propoxy]benzamidine bistrifluoroacetate] | 100 µM | 6 | 0.2 µM | 
N=C(N)c1ccc(C(=O)N[C@@H](COc2cccc(C(=N)N)c2)Cc2ccccc2)cc1.O=C(O)C(F)(F)F.O=C(O)C(F)(F)F [Compound of Ex. 117, N-[(1R)-2-(3-amidinophenoxy)-1-benzylethyl]-4-amidinobenzamide bistrifluoroacetate] | 251 µM | 6.7 | 0.0398 µM | 
N=C(N)c1cccc(OCCNC(=O)c2ccc(CN)cc2)c1.O=C(O)C(F)(F)F.O=C(O)C(F)(F)F [Compound of Ex. 98, N-[2-(3-amidinophenoxy)ethyl]-4-(aminomethyl)benzamide bistrifluoroacetate] | 631 µM | <4.5 | 3.16 µM | 
N=C(N)c1ccc(C(=O)NCCOc2cc(C(=N)N)ccc2CC(=O)C(=O)O)cc1 [Compound of Ex. 147, bistrifluoroacetate] | 20 µM | 6.5 | 0.0398 µM | 
N=C(N)c1ccc(CC(=O)C(=O)O)c(OC[C@@H](CC(=O)O)NC(=O)c2ccc(S(=O)(=O)N3CCCC3)cc2)c1.O=C(O)C(F)(F)F [Compound of Ex. 195, (3R)-4-[5-amidino-2-(2-carboxy-2-oxoethyl)phenoxy]-3-[4-(pyrrolidine-1-sulfonyl)benzoylamino]butanoic acid trifluoroacetate] |  |  |  | IC50 [1, 4]: 31.6 µM; Blood anticoagulating activity (PT2) [2, 5]: 5.9; IC50 [3, 6]: 0.0316 µM
CC(=N)N1CCC(Oc2ccc(C(=O)NCCOc3cccc(C(=N)N)c3)cc2)CC1.O=C(O)C(F)(F)F.O=C(O)C(F)(F)F [Compound of Ex. 99, N-[2-(3-amidinophenoxy)ethyl]-4-(1-acetimidoyl-4-piperidyloxy)benzamide bistrifluoroacetate] | 316 µM | 6.2 | 0.251 µM | 
CC(=N)N1CCC(Oc2ccc(C(=O)N[C@@H](COc3cc(C(=N)N)ccc3CC(=O)C(=O)O)CC(=O)O)cc2)CC1.O=C(O)C(F)(F)F.O=C(O)C(F)(F)F [Compound of Ex. 193, (3R)-4-[5-amidino-2-(2-carboxy-2-oxoethyl)phenoxy]-3-[4-(1-(1-iminoethyl)piperidyl-4-oxy)benzoylamino]butanoic acid bistrifluoroacetate] |  |  |  | Thrombin inhibiting activity (pIC50) ([1]; Table 3, same manner as Example 94): 3.4; Blood anticoagulating activity (PT2) [2, 5]: 6.2; Activity of inhibiting activated blood coagulation factor X (pIC50) [3, 6]: 7.9
N=C(N)c1cccc(OC[C@H](Cc2ccc(OC3CCNCC3)cc2)NS(=O)(=O)c2ccccc2)c1.O=C(O)C(F)(F)F.O=C(O)C(F)(F)F [Compound of Ex. 154, 3-[(2S)-2-(benzenesulfonylamino)-3-[4-(4-piperidyloxy)phenyl]propoxy]benzamidine bistrifluoroacetate] | 79.4 µM | 5.1 | 1.58 µM | 
N=C(N)c1ccc(C(=O)N[C@@H](COc2cccc(C(=N)N)c2)CC(=O)O)cc1 [Compound of Ex. 119, (3R)-3-(4-amidinobenzoylamino)-4-(3-amidinophenoxy)butanoic acid bistrifluoroacetate] | > 1000 µM |  | 0.0251 µM | 
CC(=N)N1CCC(Oc2ccc(C[C@@H](COc3cccc(C(=N)N)c3)NS(=O)(=O)c3ccc(P(=O)(O)O)cc3)cc2)CC1.O=C(O)C(F)(F)F.O=C(O)C(F)(F)F [Compound of Ex. 74] |  |  |  | Thrombin-inhibiting activity (pIC50) ([1]; Table 1, negative logarithm of concentration inhibiting 50% of initial rate, substrate S-2238, Tris-HCl pH 8.4): <3.7; Activity of inhibiting activated blood coagulation factor X (pIC50) [3, 10]: 7.6
CN(C)C(=O)c1ccc(C(=O)N[C@@H](COc2cccc(C(=N)N)c2)CC(=O)O)cc1 [Compound of Ex. 56, (3R)-4-(3-amidinophenoxy)-3-[(4-dimethylcarbamoylbenzoyl)amino]butyric acid trifluoroacetate] |  |  |  | IC50 [1, 11]: > 1000 µM; IC50 [3, 10]: 0.0158 µM
N=C(N)c1cccc(OCCNC(=O)c2ccc(N3CCCC3)cc2)c1 [Compound of Ex. 18, N-[2-(3-amidinophenoxy)ethyl]-4-(pyrrolidine-1-yl)benzamide trifluoroacetate] |  |  |  | IC50 [1, 11]: 39.8 µM; IC50 [3, 10]: 0.0501 µM
N=C(N)c1ccc(C(=O)NCCCc2cccc(C(=N)N)c2)cc1.O=C(O)C(F)(F)F.O=C(O)C(F)(F)F [Compound of Ex. 144, N-[3-(3-amidinophenyl)propyl]-4-amidinobenzamide bistrifluoroacetate] |  | 5 | 1.58 µM | 
N=C(N)c1cccc(OCCNC(=O)c2ccc(/C=C/c3ccncc3)cc2)c1 [Compound of Ex. 10, N-[2-(3-amidinophenoxy)ethyl]-4-[(E)-2-(pyridine-4-yl)vinyl]benzamide bistrifluoroacetate] |  |  |  | IC50 [1, 11]: 126 µM; IC50 [3, 10]: 0.1 µM
